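Here, GI50 denotes the concentration required for 50% inhibition of growth. The concentration for full growth arrest is given as TGI.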
Assays:
Assay in all cases: growth of human tumour cells (NCI), 384-well format
[1] = test system: 786-0 renal
[2] = test system: MCF7 breast
[3] = test system: NCI-H322M lung
[4] = test system: T-47D breast
[5] = test system: SF-539 CNS
[6] = test system: HOP-92 NSCLC
[7] = test system: RXF 393 renal
[8] = test system: MDA-MB-435 melanoma
[9] = test system: NCI/ADR-RES ovarian
[10] = test system: IGROV1 ovarian
[11] = test system: RPMI-8226 leukemia
[12] = test system: HCC-2998 colon
[13] = test system: SR leukemia
[14] = test system: MDA-MB-468 breast
[15] = test system: MOLT-4 leukemia
[16] = test system: EKVX NSCLC
[17] = test system: OVCAR-8 ovarian
[18] = test system: LOX IMVI melanoma
[19] = test system: NCI-H23 lung
[20] = test system: SK-MEL-28 melanoma
[21] = test system: CCRF-CEM leukemia
[22] = test system: MALME-3M melanoma
[23] = test system: NCI-H226 lung
[24] = test system: SNB-19 CNS
[25] = test system: SN12C renal
[26] = test system: A498 renal
[27] = test system: OVCAR-5 ovarian
[28] = test system: SK-MEL-5 melanoma
[29] = test system: ACHN renal
[30] = test system: TK-10 renal
[31] = test system: MDA-MB-231 breast
[32] = test system: NCI-H460 NSCLC
[33] = test system: HCT-15 colon
[34] = test system: K-562 leukemia
[35] = test system: BT-549 breast
[36] = test system: NCI-H522 lung
[37] = test system: SF-268 CNS
[38] = test system: SW-620 colon
[39] = test system: HT29 colon
[40] = test system: DU-145 prostate
[41] = test system: KM12 colon
[42] = test system: OVCAR-4 ovarian
[43] = test system: HOP-62 NSCLC
[44] = test system: CAKI-1 renal
[45] = test system: OVCAR-3 ovarian
[46] = test system: A549 NSCLC
[47] = test system: COLO 205 colon
[48] = test system: UACC-257 melanoma
[49] = test system: UO-31 renal
[50] = test system: SNB-75 CNS
[51] = test system: PC-3 prostate
[52] = test system: SK-OV-3 ovarian
[53] = test system: HL-60(TB) leukemia
[54] = test system: UACC-62 melanoma
[55] = test system: SF-295 CNS
[56] = test system: HS 578T breast
[57] = test system: M14 melanoma

## C[C@@H]1OCC2(CCN(c3cnc(Sc4ccnc(N)c4Cl)c(N)n3)CC2)[C@@H]1N
[1]
  GI50: > 100 µM
  TGI: > 100 µM
[2]
  GI50: > 100 µM
  TGI: > 100 µM
[3]
  GI50: 0.234 µM
  TGI: > 100 µM
[4]
  GI50: 29.3 µM
  TGI: > 100 µM
[5]
  GI50: 34.7 µM
  TGI: > 100 µM
[6]
  GI50: 0.0569 µM
  TGI: 1.05 µM
[7]
  GI50: > 100 µM
  TGI: > 100 µM
[8]
  GI50: > 100 µM
  TGI: > 100 µM
[9]
  GI50: 17.7 µM
  TGI: > 100 µM
[10]
  GI50: 0.918 µM
  TGI: > 100 µM
[11]
  GI50: 21 µM
  TGI: > 100 µM
[12]
  GI50: > 100 µM
  TGI: > 100 µM
[13]
  GI50: 0.519 µM
  TGI: 13.4 µM
[14]
  GI50: 0.0533 µM
  TGI: 0.355 µM
[15]
  GI50: 35.9 µM
  TGI: > 100 µM
[16]
  GI50: 16.5 µM
  TGI: > 100 µM
[17]
  GI50: 44.3 µM
  TGI: > 100 µM
[18]
  GI50: > 100 µM
  TGI: > 100 µM
[19]
  GI50: 0.0797 µM
  TGI: 44.2 µM
[20]
  GI50: > 100 µM
  TGI: > 100 µM
[21]
  GI50: 32 µM
  TGI: > 100 µM
[22]
  GI50: > 100 µM
  TGI: > 100 µM
[23]
  GI50: 1.18 µM
  TGI: > 100 µM
[24]
  GI50: > 100 µM
  TGI: > 100 µM
[25]
  GI50: 3.87 µM
  TGI: > 100 µM
[26]
  GI50: 4.18 µM
  TGI: > 100 µM
[27]
  GI50: > 100 µM
  TGI: > 100 µM
[28]
  GI50: > 100 µM
  TGI: > 100 µM
[29]
  GI50: 4.99 µM
  TGI: > 100 µM
[30]
  GI50: 3.58 µM
  TGI: > 100 µM
[31]
  GI50: > 100 µM
  TGI: > 100 µM
[32]
  GI50: > 100 µM
  TGI: > 100 µM
[33]
  GI50: > 100 µM
  TGI: > 100 µM
[34]
  GI50: 0.148 µM
  TGI: > 100 µM
[35]
  GI50: 35.1 µM
  TGI: > 100 µM
[36]
  GI50: 1.44 µM
  TGI: > 100 µM
[37]
  GI50: > 100 µM
  TGI: > 100 µM
[38]
  GI50: > 100 µM
  TGI: > 100 µM
[39]
  GI50: > 100 µM
  TGI: > 100 µM
[40]
  GI50: > 100 µM
  TGI: > 100 µM
[41]
  GI50: 0.621 µM
  TGI: > 100 µM
[42]
  GI50: > 100 µM
  TGI: > 100 µM
[43]
  GI50: > 100 µM
  TGI: > 100 µM
[44]
  GI50: 0.426 µM
  TGI: > 100 µM
[45]
  GI50: 77.9 µM
  TGI: > 100 µM
[46]
  GI50: > 100 µM
  TGI: > 100 µM
[47]
  GI50: > 100 µM
  TGI: > 100 µM
[48]
  GI50: > 100 µM
  TGI: > 100 µM
[49]
  GI50: 27.6 µM
  TGI: > 100 µM
[50]
  GI50: 51.2 µM
  TGI: > 100 µM
[51]
  GI50: > 100 µM
  TGI: > 100 µM
[52]
  GI50: 25.2 µM
  TGI: > 100 µM
[53]
  GI50: 65.1 µM
  TGI: > 100 µM
[54]
  GI50: > 100 µM
  TGI: > 100 µM
[55]
  GI50: > 100 µM
  TGI: > 100 µM
[56]
  GI50: > 100 µM
  TGI: > 100 µM
[57]
  GI50: > 100 µM
  TGI: > 100 µM

Reference: PubChem BioAssay (NCI)
